# Reference: ChEMBL document CHEMBL3879893, “Nuclear transport modulators and uses thereof” (2011)
# The source made the active and inactive calls. The calls are words filed in the database; no cut-off is given here.
# Target: T1, Exportin-1 (Homo sapiens, UniProt O14980)
# Test: Inhibition of Crm1 in human U2OS cells expressing GFP-fused HIV1 Rev assessed as decrease in nuclear export of GFP-fused HIV1 Rev after 1 hr by Hoechst 33258 staining-based assay
# Type: cell-based
# T1 sequence (O14980 whole entry, the tested form may be a part): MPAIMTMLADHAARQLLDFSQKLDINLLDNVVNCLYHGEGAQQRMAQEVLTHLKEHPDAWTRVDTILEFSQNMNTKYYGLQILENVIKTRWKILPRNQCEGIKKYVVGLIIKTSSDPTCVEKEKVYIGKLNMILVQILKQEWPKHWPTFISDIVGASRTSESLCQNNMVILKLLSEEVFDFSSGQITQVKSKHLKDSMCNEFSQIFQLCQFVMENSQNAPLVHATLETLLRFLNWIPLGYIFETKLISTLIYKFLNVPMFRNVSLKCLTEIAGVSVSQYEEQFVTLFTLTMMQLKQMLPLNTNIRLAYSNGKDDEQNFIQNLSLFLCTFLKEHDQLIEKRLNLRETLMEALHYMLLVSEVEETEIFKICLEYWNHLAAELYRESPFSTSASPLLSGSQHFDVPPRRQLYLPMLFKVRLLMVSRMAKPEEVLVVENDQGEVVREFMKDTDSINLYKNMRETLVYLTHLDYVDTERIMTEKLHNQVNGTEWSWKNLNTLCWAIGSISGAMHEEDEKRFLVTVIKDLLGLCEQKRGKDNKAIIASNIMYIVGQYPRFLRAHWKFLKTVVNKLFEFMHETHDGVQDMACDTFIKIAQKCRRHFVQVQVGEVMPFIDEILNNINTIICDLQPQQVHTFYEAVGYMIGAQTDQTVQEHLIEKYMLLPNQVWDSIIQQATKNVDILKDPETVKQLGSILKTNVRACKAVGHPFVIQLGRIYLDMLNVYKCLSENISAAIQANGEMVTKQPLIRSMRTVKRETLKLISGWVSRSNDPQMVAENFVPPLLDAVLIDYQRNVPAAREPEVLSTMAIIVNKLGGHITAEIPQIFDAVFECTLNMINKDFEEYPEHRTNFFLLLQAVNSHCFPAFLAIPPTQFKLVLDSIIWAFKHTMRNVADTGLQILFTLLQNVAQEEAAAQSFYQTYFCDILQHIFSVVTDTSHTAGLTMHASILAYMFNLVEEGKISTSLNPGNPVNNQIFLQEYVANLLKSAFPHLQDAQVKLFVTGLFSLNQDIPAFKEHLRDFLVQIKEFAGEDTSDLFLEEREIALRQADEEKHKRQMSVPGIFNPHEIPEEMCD
row,SMILES,IC50
1,O=C(/C=C\n1cnc(-c2cccc(Cl)c2)n1)OC1COC1,≤ 1000 nM
2,O=C(/C=C\n1cnc(-c2cccc(Cl)c2)n1)OCc1ccccn1,≤ 1000 nM
3,CC(C)OC(=O)/C=C\n1cnc(-c2cc(Cl)nc(OC(C)C)c2)n1,≤ 1000 nM
4,CC(C)OC(=O)/C=C/n1cnc(-c2cccc(Cl)c2)n1,≥ 10000 nM
5,CC(C)OC(=O)/C=C\n1cnc(-c2csc(Cl)c2)n1,≤ 1000 nM
6,CC(C)OC(=O)/C=C/n1cnc(-c2cc(OCCN(C)C)cc(C(F)(F)F)c2)n1,1000 to 10000 nM
7,O=C(/C=C\n1cnc(-c2cccc(Cl)c2)n1)OC1COC(=O)C1 (stereo not given),1000 to 10000 nM
8,CC(C)Nc1cc(-c2ncn(/C=C\C(=O)OC(C)C)n2)cc(C(F)(F)F)n1,≤ 1000 nM
9,COc1cc(-c2ncn(/C=C\C(=O)OC3CNC3)n2)cc(C(F)(F)F)c1,≤ 1000 nM
10,O=C(/C=C\n1cnc(-c2cccc(Cl)c2)n1)OC1CCOC1 (stereo not given),≤ 1000 nM
11,CC(C)OC(=O)/C=C\n1cnc(-c2cc(OC(C)C)nc(C(F)(F)F)c2)n1,≤ 1000 nM
12,CC(C)Nc1cc(-c2ncn(/C=C\C(=O)OC(C)C)n2)cc(Cl)n1,≤ 1000 nM
13,CC(C)OC(=O)/C=C\n1cnc(-c2cccc(C(F)(F)F)c2)n1,≤ 1000 nM
14,Cc1cccc(-c2ncn(/C=C\C(=O)OC(C)C)n2)c1,≤ 1000 nM
15,CC(C)OC(=O)/C=C\n1cnc(-c2cncc(Cl)c2)n1,≤ 1000 nM
16,COCCOc1cc(Cl)cc(-c2ncn(/C=C\C(=O)OC(C)C)n2)c1,≤ 1000 nM
17,CC(C)Oc1cc(-c2ncn(/C=C\C(=O)OCc3ccccn3)n2)cc(C(F)(F)F)n1,≤ 1000 nM
18,CNc1cc(Cl)cc(-c2ncn(/C=C\C(=O)OC(C)C)n2)c1,≤ 1000 nM
19,CCOC(=O)/C=C\n1cnc(-c2cc(Cl)cc(OC)c2)n1,≤ 1000 nM
20,CC(C)OC(=O)/C=C\c1n[nH]c(-c2cc(Cl)cc(Cl)c2)n1,1000 to 10000 nM
21,COc1ccc(Cl)cc1-c1ncn(/C=C\C(=O)OC(C)C)n1,≤ 1000 nM
22,COc1cc(-c2ncn(/C=C\C(=O)OC(C)C)n2)cc(C(F)(F)F)c1,≤ 1000 nM
23,O=C(/C=C\n1cnc(-c2cccc(Cl)c2)n1)NC1CCCC1,≥ 10000 nM
24,COc1ccc(NC(=O)/C=C/n2cnc(-c3cccc(Cl)c3)n2)cc1,≥ 10000 nM
25,CC(C)OC(=O)/C=C\n1cnc(-c2cc(Cl)nc(Cl)c2)n1,≤ 1000 nM
26,CC(C)OC(=O)/C=C\n1cnc(-c2csc(Br)n2)n1,1000 to 10000 nM
27,CCOC(=O)/C=C/n1cnc(-c2cccc(Cl)c2)n1,≥ 10000 nM

row,SMILES,IC50
1,COc1cc(-c2ncn(/C=C\C(=O)OC(C)C)n2)cc(Cl)n1,≤ 1000 nM
2,CC(C)(C)OC(=O)/C=C/n1cnc(-c2cccc(Cl)c2)n1,≥ 10000 nM
3,CC(C)OC(=O)/C=C\n1cnc(-c2csc(Cl)n2)n1,1000 to 10000 nM
4,O=C(/C=C\n1cnc(-c2cccc(Cl)c2)n1)OC1CCCC1,≤ 1000 nM
5,COc1ccc(-c2ncn(/C=C\C(=O)OC(C)C)n2)cc1Cl,1000 to 10000 nM
6,CC(C)OC(=O)/C=C\n1cnc(-c2cc(Cl)ccc2N)n1,≤ 1000 nM
7,O=C(/C=C\n1cnc(-c2cccc(Cl)c2)n1)N1CCC1,≤ 1000 nM
8,CC(C)OC(=O)/C=C\n1cnc(-c2cc(NC3CCC3)nc(C(F)(F)F)c2)n1,≤ 1000 nM
9,CC(C)(C)OC(=O)/C=C\n1cnc(-c2cccc(Cl)c2)n1,1000 to 10000 nM
10,CC(C)OC(=O)/C=C\n1cnc(-c2ccc(Cl)c(Cl)c2)n1,≤ 1000 nM
11,O=C(/C=C\n1cnc(-c2cccc(Cl)c2)n1)OC1CNC1,≤ 1000 nM
12,CCOC(=O)/C=C\n1cnc(-c2cc(Cl)cc(Cl)c2)n1,≤ 1000 nM
13,CC(C)(C)OC(=O)Nc1ccc(NC(=O)/C=C/n2cnc(-c3cccc(Cl)c3)n2)cc1,≥ 10000 nM
14,O=C(/C=C\n1cnc(-c2cccc(Cl)c2)n1)OCc1cnc[nH]1,1000 to 10000 nM
15,CC(C)OC(=O)/C=C\n1cnc(-c2cc(Cl)cc(Oc3ccc(Cl)cc3)c2)n1,1000 to 10000 nM
16,C[S+]([O-])/C=C\n1cnc(-c2cccc(Cl)c2)n1 (stereo not given),1000 to 10000 nM
17,O=C(/C=C\n1cnc(-c2cccc(Cl)c2)n1)OC1CCOCC1,≤ 1000 nM
18,CC(C)OC(=O)/C=C\n1cnc(-c2cc(C#N)cc(OC(C)C)c2)n1,≤ 1000 nM
19,CS(=O)(=O)/C=C\n1cnc(-c2cccc(Cl)c2)n1,≤ 1000 nM
20,CC(C)OC(=O)/C=C\n1cnc(-c2cccc(Cl)c2)n1,≤ 1000 nM
21,CC(C)OC(=O)/C=C\n1cnc(-c2cc(Cl)cc(OC(C)C)c2)n1,≤ 1000 nM
22,Nc1ccc(NC(=O)/C=C/n2cnc(-c3cccc(Cl)c3)n2)cc1,≥ 10000 nM
23,CC(C)OC(=O)/C=C\n1cnc(-c2cc(OC(C)C)cc(C(F)(F)F)c2)n1,≤ 1000 nM
24,CC(C)OC(=O)/C=C/Cn1cnc(-c2cccc(Cl)c2)n1,1000 to 10000 nM
25,N#C/C=C\n1cnc(-c2cccc(Cl)c2)n1,≤ 1000 nM
26,O=C(/C=C/n1cnc(-c2cccc(Cl)c2)n1)Nc1cccc(Cl)c1,≥ 10000 nM
27,CCOC(=O)/C=C\n1cnc(-c2cccc(Cl)c2)n1,≤ 1000 nM

row,SMILES,IC50
1,CC(C)OC(=O)/C=C\n1cnc(-c2cc(O/C=C/C(=O)OC(C)C)cc(C(F)(F)F)c2)n1,1000 to 10000 nM
2,O=C(/C=C\c1nnc(-c2cccc(Cl)c2)[nH]1)Nc1ccccc1,≥ 10000 nM
3,CC(C)OC(=O)/C=C\c1nnc(-c2cccc(F)c2)[nH]1,1000 to 10000 nM
4,COC(=O)/C=C\n1cnc(-c2cc(Cl)cc(OC)c2)n1,≤ 1000 nM
5,FC(F)(F)/C=C\n1cnc(-c2cccc(Cl)c2)n1,1000 to 10000 nM
6,CC(C)OC(=O)/C=C\c1n[nH]c(-c2cccc(Cl)c2)n1,≤ 1000 nM
7,O=C(/C=C\n1cnc(-c2cccc(Cl)c2)n1)OC1CCC1,≤ 1000 nM
8,CC(C)Oc1cc(-c2ncn(/C=C\C#N)n2)cc(C(F)(F)F)c1,≤ 1000 nM
9,N#C/C=C/n1cnc(-c2cccc(Cl)c2)n1,1000 to 10000 nM
10,CC(C)OC(=O)/C=C\Cn1cnc(-c2cccc(Cl)c2)n1,1000 to 10000 nM
11,COc1cc(Cl)cc(-c2ncn(/C=C\C(=O)OC(C)C)n2)c1,≤ 1000 nM
12,CCOC(=O)/C=C\n1cnc(-c2cc(F)cc(F)c2)n1,1000 to 10000 nM
13,CC(C)OC(=O)/C=C/n1cnc(-c2cc(OCCN3CCCC3)cc(C(F)(F)F)c2)n1,≥ 10000 nM
14,CC(C)OC(=O)/C=C\n1cnc(-c2cc(Cl)cc(OC(F)(F)F)c2)n1,≤ 1000 nM
15,COc1cc(OC)cc(-c2ncn(/C=C\C(=O)OC(C)C)n2)c1,≤ 1000 nM
16,CC(C)OC(=O)/C=C\n1cnc(-c2cc(OCCN(C)C)cc(C(F)(F)F)c2)n1,≤ 1000 nM
17,CC(C)OC(=O)/C=C\n1cnc(-c2cc(OCCN3CCCC3)cc(C(F)(F)F)c2)n1,≤ 1000 nM
18,O=C(/C=C\n1cnc(-c2cccc(Cl)c2)n1)OC1CCCCC1,≤ 1000 nM
19,O=C(/C=C/n1cnc(-c2cccc(Cl)c2)n1)OC1CNC1,1000 to 10000 nM
20,CC(C)OC(=O)/C=C\n1cnc(-c2ccc(-c3ccccc3)c(F)c2)n1,≥ 10000 nM
21,O=C(/C=C\n1cnc(-c2cccc(Cl)c2)n1)OCC1CCCN1 (stereo not given),1000 to 10000 nM
22,CC(C)OC(=O)/C=C\n1cnc(-c2ccc(Oc3ccc(Cl)cc3)cc2)n1,1000 to 10000 nM
23,O=C(/C=C\n1cnc(-c2cc(Cl)nc(Cl)c2)n1)OC1CNC1,≤ 1000 nM
24,CN(C(=O)/C=C\c1nnc(-c2cccc(Cl)c2)[nH]1)c1ccccc1,≥ 10000 nM
25,CC(C)Oc1cc(-c2ncn(/C=C\C(=O)OCc3ccccn3)n2)cc(C(F)(F)F)c1,≤ 1000 nM

# Target: T1, Exportin-1
# Test: Inhibition of Crm1 in human H929 cells assessed as decrease in nuclear export of topoisomerase-2 by measuring caspase-3 levels at 0.1 to 10 uM preincubated for 16 hrs followed by addition of topoisomerase-2 inhibitor doxorubicin measured after 4 hrs by anti-caspase-3 assay
# Type: cell-based
row,SMILES,inhibition
1,CC(C)OC(=O)/C=C\n1cnc(-c2cccc(Cl)c2)n1,Active
